What all share (type): cell-based
One assay has as its system MIP 101 colon carcinoma. As to the kind of experiment: Anchorage Dependent Growth Monolayer Assay (ADGMA), MIP 101. The note with it: Homo sapiens, Colon carcinoma cell, 72 h; MIP 101 colon carcinoma cells, 3-day exposure, MTT, A540; * = average of two independent experiments. The text has this: (§1) As indicated above, all of the compounds of formula I are anti-tumor agents and are, therefore, useful in inhibiting the growth of various lymphomas, sarcomas, carcinomas, myelomas, and leukemia cell lines. […] This assay was adapted from the 60 cell line assay used by the National Cancer Institute (NCI) with the following modifications:
(§2) 1) four cell lines representative for the important tumor types, viz., MIP 101 colon carcinoma, HCT 116 colon carcinoma, 1A9 ovarian carcinoma and 1A9PTX22 ovarian carcinoma were utilized; and 2) a tetrazolium derivative, viz., MTT, was utilized to determine cell density.
(§3) The ADGMA compares the number of viable cells following a 3-day exposure to a test compound relative to the number of cells present at the time the test compound was added. […] The absorbance at 540 nm (A540) of the formazan derivative is proportional to the number of viable cells. The IC50 for a test compound is the concentration of compound required to reduce the final cell number to 50% of the final control cell number. If cell proliferation is inhibited, the assay further defines compounds as cytostatic (cell number after 3-day compound incubation>cell number at time of compound addition) or cytotoxic (cell number after 3-day compound incubation<cell number at time of compound addition).
(§4) The HCT 116 colon carcinoma cell line was obtained from the American Type Culture Collection (ATCC, Rockville, Md.). The MIP 101 colon carcinoma was obtained from Dr. Robert Kramer (Bristol Meyers Squibb) and was previously described (Niles R M, Wilhelm S A, Steele G D JR, Burke B, Christensen T, Dexter D, O'Brien M J, Thomas P, Zamcheck N. Isolation and characterization of an undifferentiated human colon carcinoma cell line (MIP 101). Cancer Invest. 1987;5(6):545–52). The 1A9 and the 1A9PTX22 ovarian tumor cell lines were obtained from Dr. Tito Fojo, Medicine Branch, Division of Clinical Sciences, National Cancer Institute, National Institutes of Health, Bethesda, Md. 20892. The 1A9 is a clone of the ovarian carcinoma cell line, A2780 (Giannakakou P, Sackett, D L, Kang Y-K, Zhan Z, Buters J T M, Fojo T, Poruchynsky M S. Paclitaxel-resistant human ovarian cancer cells have mutant β-tubulins that impaired paclitaxel-driven polymerization. J. Biol. Chem. 1997, 272(4):17118–17125). The 1A9PTX22 subline was isolated as an individual clone from the 1A9 cell line in a single step selection by exposure to 5 ng/mL paclitaxel in the presence of 5 μg/mL of verapamil. All cell lines were used between passages 4–20 following thawing. MIP 101 colon carcinoma, HCT 116 colon carcinoma, 1A9 ovarian carcinoma and 1A9PTX22 ovarian carcinoma cell lines are maintained and plated in RPMI 1640 medium containing 10% fetal bovine serum.
(§5) Cells are trypsinized and counted using a hemacytometer to determine cell concentrations. Cells were then plated in their respective maintenance media (200 μL/well) in 96-well plates at the following concentrations: MIP 101, 2000 cells/well, HCT 116, 2000 cells/well, 1A9, 10000 cells/well, and 1A9PTX22, 10000 cells/well. […] Initial cell densities, assayed one day after plating, are roughly 0.10–0.20 A540 absorbance units greater than the media blank. Ninety-six-well plates were seeded on day 0 and the test compounds are added on day 1. A “time 0” plate was created that received media only in row A and one cell line/row in rows B–E. The “time 0” plate was processed 24 hours after plating (at the time when drugs were added to experimental plates), as follows: To each well 5 micoliters of the MTT stock solution (0.5 mg/mL in PBS) was added to each well and then incubated for three hours at 37° C., 5% CO2, in a humidified environment. Media was then carefully and completely removed. Plates were allowed to dry in the dark. Dimethylsulfoxide (DMSO) was added to each well (100 μL/well) and plates were placed on an orbital shaker for 2 hours. […]

A further assay deals with HCT 116 colon carcinoma. Put plainly: Anchorage Dependent Growth Monolayer Assay (ADGMA), HCT 116. The note with it: Homo sapiens, 72 h; HCT 116 colon carcinoma cells, 3-day exposure, MTT, A540; * = average of two independent experiments; read-out: IC50 HCT116.
From the text: as §1, §2, §3, §4, §5

Another assay deals with 1A9 ovarian carcinoma. Put plainly: Anchorage Dependent Growth Monolayer Assay (ADGMA), 1A9. Conditions: Homo sapiens, Ovarian carcinoma cell, 72 h; 1A9 ovarian carcinoma cells, 3-day exposure, MTT, A540; * = average of two independent experiments.
From the text: as §1, §2, §3, §4, §5

Assay [1] relates to 1A9PTX22 ovarian carcinoma. Put plainly: Anchorage Dependent Growth Monolayer Assay (ADGMA), 1A9PTX22. Conditions: Homo sapiens, 1A9/ptx-22, 72 h; 1A9PTX22 ovarian carcinoma cells (paclitaxel-selected subline), 3-day exposure, MTT, A540; * = average of two independent experiments.
From the text: as §1, §2, §3, §4, §5

This note sets out measurements from patent publication US7192980B2, “Certain substituted polyketides, pharmaceutical compositions containing them and their use in treating tumors” (Novartis AG, priority 2001, dated 2007).

SMILES strings stand for the structures.

One may read the IC50 as the concentration that inhibits the measured activity by half. Take `C=C/C=C\[C@H](C)[C@H](OC(N)=O)[C@@H](C)[C@H](O)[C@@H](C)C/C(C)=C\C(C)C(O)C(C)/C=C\[C@@H](O)C[C@H]1CCCC(=O)O1` (stereo partly drawn) [Ex. 1, 6-[(2S,3Z,8Z,11S,12R,13S,14S,15S,16Z)-14-[(aminocarbonyl)oxy]-2,6,12-trihydroxy-5,7,9,11,13,15-hexamethyl-3,8,16,18-nonadecatetraenyl]tetrahydro-(6R)-2H-pyran-2-one]: the IC50 in the assay on MIP 101 colon carcinoma turned out to be 60 ± 10 nM; in the assay with HCT 116 colon carcinoma it was 7 ± 5 nM; in the assay with 1A9 ovarian carcinoma, 6 ± 2 nM; in assay [1], 7 ± 2 nM.
The like results for `C=C/C=C\[C@H](C)C(OC(N)=O)C(C)C(O)C(C)C/C(C)=C\[C@H](C)[C@@H](O)[C@@H](C)COC(=O)NC1CCCCC1` (stereo partly drawn) [Ex. 2, (5Z,8S,9R,10S,11S,12S,13Z)-11-[(aminocarbonyl)oxy]-3,9-dihydroxy-2,4,6,8, 10,12-hexamethyl-5,13,15-hexadecatrienyl ester cyclohexylcarbamic acid] were, in that order, 3200 nM, 400 nM, 500 nM and 400 nM.
Regarding `C=C/C=C\[C@H](C)C(OC(N)=O)C(C)C(O)C(C)C/C(C)=C\[C@H](C)[C@@H](O)[C@@H](C)/C=C\COc1ccccc1` (stereo partly drawn) [Ex. 3, (2Z,7Z,10S,11R,12S,13S,14S,15Z)-4,6,8,10,12,14-hexamethyl-1-phenoxy-2,7,15,17-octadecatetraene-5,11,13-triol-13-carbamate], the IC50 with MIP 101 colon carcinoma came out at 400 ± 100 nM; with HCT 116 colon carcinoma, 200 ± 100 nM; in the assay on 1A9 ovarian carcinoma, 300 ± 90 nM; in assay [1] it was 100 ± 40 nM.
For `C=C/C=C\[C@H](C)C(OC(N)=O)C(C)C(O)C(C)C/C(C)=C\[C@H](C)[C@@H](O)[C@@H](C)/C=C\C(=O)N(C)c1ccccc1` (stereo partly drawn) [Ex. 4, (2Z,7Z,10S,11R,12S,13S,14S,15Z)-13-[(aminocarbonyl)oxy]-5,11-dihydroxy-N,4,6,8,10,12,14-heptamethyl-N-phenyl 2,7,15,17-octadecatetraenamide], in that order: 3200 nM, 800 nM, 500 nM and 400 nM.
For `C=C/C=C\[C@H](C)C(OC(N)=O)C(C)C(O)C(C)C/C(C)=C\[C@H](C)[C@@H](O)[C@@H](C)CN(C)C(=O)CC1CCCCC1` (some centres unmarked) [Ex. 5], the IC50 worked out at 600 nM with MIP 101 colon carcinoma, 300 nM with HCT 116 colon carcinoma, 400 nM with 1A9 ovarian carcinoma and 80 nM in assay [1].
With `C=C/C=C\[C@H](C)C(OC(N)=O)C(C)C(O)C(C)C/C(C)=C\[C@H](C)[C@@H](O)[C@@H](C)/C=C\C(O)CC1CCCC1` (stereo partly drawn) [Ex. 6, (2S,3Z,5S,6S,7S,8Z,11S,12R,13R,14S,15S,16Z)-1-cyclopentyl-5,7,9,11,13,15-hexamethyl-3,8,16,18-nonadecatetraene-2,6,12,14-tetrol-14-carbamate], the IC50 in the assay on MIP 101 colon carcinoma was 6 nM; in the assay on HCT 116 colon carcinoma, 1 nM; in the assay with 1A9 ovarian carcinoma, 0.3 nM; in assay [1], 1 nM.
Take `C=C/C=C\[C@H](C)C(OC(N)=O)C(C)C(O)C(C)C/C(C)=C\[C@H](C)[C@@H](O)[C@@H](C)/C=C\C(O)CC(C)C` (stereo partly drawn) [Ex. 7, (2S,3Z,5S,6S,7S,8Z,11S,12R,13R,14S,15S,16Z)-1-isopropyl-5,7,9,11,13,15-hexamethyl-3,8,16,18-nonadecatetraene-2,6,12,14-tetrol-14-carbamate]: the IC50 is 100 nM with MIP 101 colon carcinoma, 30 nM in the assay on HCT 116 colon carcinoma, 30 nM in the assay on 1A9 ovarian carcinoma and 60 nM in assay [1].
On to `CC(=O)O[C@H]1C(=O)[C@@]2(C)[C@H]([C@H](OC(=O)c3ccccc3)[C@]3(O)C[C@H](OC(=O)[C@H](O)[C@@H](NC(=O)c4ccccc4)c4ccccc4)C(C)=C1C3(C)C)[C@]1(OC(C)=O)CO[C@@H]1C[C@@H]2O` [Paclitaxel, reference compound], for which the IC50 is 200 ± 60 nM in the assay with MIP 101 colon carcinoma, 0.3 ± 0.2 nM with HCT 116 colon carcinoma, 47 ± 7 nM with 1A9 ovarian carcinoma and 1 ± 1 nM in assay [1].
